For data set [1], the system named is rodent model of stroke recovery (MCAO). Nature of the data set: Stroke recovery in vivo after middle cerebral artery occlusion (MCAO): limb placing and body swing tests. To be noted: rat MCAO; 10 mg/kg i.v. on Day 1, 2 and 3 after MCAO; vs vehicle, p<0.001; up to Day 21. The protocol: Compound 2 (2-(1-benzhydrylpiperidin-4-yl)-N,N-diethyl-1,2,3,4-tetrahydroisoquinolin-6-amine) was tested for its effectiveness in a rodent model of stroke recovery. Twenty male Sprague Dawley Rats (Charles River Laboratories) each weighing 300-400 g were used in this experiment. First, anesthesia was induced in an induction chamber with 2-3% isoflurane in N2O:O2 (2:1) and maintained with 1-1.5% isoflurane via face mask. Adequate depth of anesthesia was assessed by lack of withdrawal to hindlimb pinch and loss of eyeblink reflex. Once anesthetized, animals received cefazolin sodium (40 mg/kg, i.p.) and buprenorphine SR (0.9-1 mg/kg, s.c.). Cefazolin was used as a prophylactic antibiotic. A veterinary ophthalmic ointment (Sodium Chloride hypertonicity ophthalmic ointment (Muro 128 Sterile Ophthalmic 5% Ointment)) was applied to the eyes. […]
Behavioral evaluations of sensorimotor function were done by investigators blinded to treatment assignment. […] For the forelimb-placing test, the examiner held the rat close to a tabletop and scored the rat's ability to place the forelimb on the tabletop in response to whisker, visual, tactile, or proprioceptive stimulation. Similarly, for the hindlimb placing test, the examiner assessed the rat's ability to place the hindlimb on the tabletop in response to tactile and proprioceptive stimulation. […]

Data set [2] in a line: Body weight pre- and post-MCAO. Format: in vivo. To be noted: rat MCAO; 10 mg/kg i.v. on Day 1, 2 and 3 after MCAO. As to the method: The rats were randomly assigned into two groups of ten each. Each group was injected intravenously (i.v.) with 2 ml/kg Compound 2 at 10 mg/kg or vehicle (18% Cremophor RH40 and 10% DMSO in 5% dextrose solution (D5WW)) on Day 1, 2, and 3 after MCAO. Day 0 is the day of the MCAO, and the days after the MCAO are numbered consecutively (Day 1, Day 2, Day 3, etc.) D-pre represents the day prior to the MCAO.
Typically, after an initial rapid rise, there is a continued slow, steady, and partial improvement in sensorimotor function (as measured by forelimb and hindlimb placing and body swing tests) during the first three weeks after stroke. […] The normal rise in body weight following surgery was not affected by treatment with Compound 2.

Another data set deals with FGFR1 (Homo sapiens, UniProt P11362). As to the kind of experiment: Phosphorylation of FGFR1 in cells expressing FGFR1 in the presence of submaximal FGF-2. To be noted: increasing concentrations, submaximal concentration of FGF-2; FIG. 2. Format: cell-based. The protocol:
Cells expressing FGFR1 were exposed to increasing concentrations of Compound 2 in the presence of a submaximal concentration of FGF-2. Cells were then lysed, and the relative phosphorylation of FGFR1 was assessed using antibodies to non-phosphorylated and phosphorylated FGFR1. The results are shown in FIG. 2, which is a graph showing the phosphorylation of FGFR1 in the presence of increasing concentrations of Compound 2.

Consider 1 molecule from patent publication US20240174631A1, “COMPOUNDS, COMPOSITIONS, AND METHODS FOR MODULATING FGF ACTIVITY” (Recovery Therapeutics, Inc., priority 2021, published 2024).

Chain of FGFR1 (P11362 22-822): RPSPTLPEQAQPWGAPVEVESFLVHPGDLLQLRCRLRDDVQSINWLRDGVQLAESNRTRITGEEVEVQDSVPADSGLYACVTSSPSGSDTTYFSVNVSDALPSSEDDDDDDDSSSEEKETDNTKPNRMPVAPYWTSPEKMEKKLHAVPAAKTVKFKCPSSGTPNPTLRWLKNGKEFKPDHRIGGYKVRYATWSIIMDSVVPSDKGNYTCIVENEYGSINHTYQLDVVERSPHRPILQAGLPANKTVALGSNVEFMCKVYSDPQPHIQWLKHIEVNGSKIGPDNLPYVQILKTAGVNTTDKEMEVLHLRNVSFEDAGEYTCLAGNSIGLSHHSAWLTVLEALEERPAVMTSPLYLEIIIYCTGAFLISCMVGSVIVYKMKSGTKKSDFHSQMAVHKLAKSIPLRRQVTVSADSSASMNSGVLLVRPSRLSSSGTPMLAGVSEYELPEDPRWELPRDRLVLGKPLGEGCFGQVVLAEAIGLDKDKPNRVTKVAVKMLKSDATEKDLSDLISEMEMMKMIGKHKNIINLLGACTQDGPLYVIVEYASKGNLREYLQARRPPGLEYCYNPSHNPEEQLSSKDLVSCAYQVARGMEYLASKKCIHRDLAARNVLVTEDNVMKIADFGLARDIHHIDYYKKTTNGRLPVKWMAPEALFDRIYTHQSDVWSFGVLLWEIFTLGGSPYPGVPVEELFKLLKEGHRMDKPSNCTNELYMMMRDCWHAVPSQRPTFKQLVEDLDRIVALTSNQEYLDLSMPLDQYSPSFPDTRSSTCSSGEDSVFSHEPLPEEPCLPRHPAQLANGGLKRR
Chain of FGFR1 (P09038 143-288 partner): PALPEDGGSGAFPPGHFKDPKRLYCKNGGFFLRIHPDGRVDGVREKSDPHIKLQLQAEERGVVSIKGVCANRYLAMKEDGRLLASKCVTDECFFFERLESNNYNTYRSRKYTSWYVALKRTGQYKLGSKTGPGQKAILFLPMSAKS

In the case of `CCN(CC)c1ccc2c(c1)CCN(C1CCN(C(c3ccccc3)c3ccccc3)CC1)C2` [Compound 2, 2-(1-benzhydrylpiperidin-4-yl)-N,N-diethyl-1,2,3,4-tetrahydroisoquinolin-6-amine], the “sensorimotor recovery (forelimb placing, hindlimb placing and body swing tests)” value in data set [1] was “clear and significant augmentation of sensorimotor recovery”. Further, the “rise in body weight following surgery” value in data set [2] is “not affected”. In addition, the “phosphorylation of FGFR1” value on FGFR1 is given as “augmented the effects of FGF-2”.
